Test [1] has as its system human colon carcinoma cells WiDr. The test can be described thus: In vitro cell proliferation inhibitory activity (Table 1), colon carcinoma cells WiDr, MTT. In kind it is cell-based. The note with it: 72 h, read-out: IC50, Colon carcinoma cells WiDr.
For test [2], the system named is human normal fetal pulmonary fibroblasts HEL. The test can be described thus: In vitro cell proliferation inhibitory activity (Table 1), normal cells HEL, MTT. It is filed as cell-based. The following applies: Pulmonary fibroblast, 72 h, read-out: IC50, Normal cells HEL.
Test [3] concerns the target T1, mitochondrial membrane enzyme glutaminase (Homo sapiens, UniProt O94925).
T1 sequence (O94925 73-669 limits assumed): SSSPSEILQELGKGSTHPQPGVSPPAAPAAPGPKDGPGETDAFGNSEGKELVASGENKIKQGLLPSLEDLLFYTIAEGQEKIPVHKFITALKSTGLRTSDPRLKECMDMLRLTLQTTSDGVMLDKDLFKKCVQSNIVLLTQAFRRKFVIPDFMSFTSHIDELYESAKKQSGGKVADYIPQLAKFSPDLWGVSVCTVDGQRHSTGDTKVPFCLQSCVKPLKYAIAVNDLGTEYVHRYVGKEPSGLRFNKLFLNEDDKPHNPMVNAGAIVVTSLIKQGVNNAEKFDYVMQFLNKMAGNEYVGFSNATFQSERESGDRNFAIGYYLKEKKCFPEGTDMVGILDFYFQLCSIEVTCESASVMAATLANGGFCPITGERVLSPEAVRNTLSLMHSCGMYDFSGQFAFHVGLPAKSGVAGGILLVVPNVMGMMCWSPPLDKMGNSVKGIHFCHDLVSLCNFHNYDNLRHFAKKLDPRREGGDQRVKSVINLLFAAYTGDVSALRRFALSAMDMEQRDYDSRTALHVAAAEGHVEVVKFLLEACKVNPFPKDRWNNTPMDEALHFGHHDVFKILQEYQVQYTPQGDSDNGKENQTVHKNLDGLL
The test can be described thus: Inhibitory activity against the mitochondrial membrane enzyme glutaminase (crude enzyme of WiDr cells). The note with it: WiDr mitochondrial fraction, tritium-labelled glutamine 0.8 μM, phosphoric acid 200 mM, pH 8.0, 37° C., 15 minutes; read-out: IC50, enzymatic activity of glutaminase. It is filed as biochemical.

Test [4] concerns human colon carcinoma cells WiDr transplanted to nude mice. The test can be described thus: In vivo colon carcinoma inhibitory activity, WiDr transplanted to nude mice (Test Example 3). Details: species or system human cells in Balb/C female nude mice. The following applies: oral; for Proliferation rate (tumor volume, treated/control): 3 times a day for 3 days, control = 100. On the procedure:
In vivo colon carcinoma inhibitory activity
The human colon carcinoma cells WiDr (5,000,000 cells) were subcutaneously transplanted to a thoracic part of each of Balb/C female nude mice (7 weeks of age). On the 5th day after the transplantation, the tumor size was measured. Five mice (per group) with almost the same tumor size were used for this experiment. Each of solutions of 2-amino-1-methylimidazole hydrochloride (50 mg/kg body weight, 100 mg/kg body weight and 200 mg/kg body weight) of the present invention in physiological saline was orally administered 3 times a day for 3 days. The day following the end of the administration, the tumor size was measured. The tumor volume was calculated from the following equation:
(§1) Tumor volume=(major axis)×(minor axis)×(minor axis)×(1/2)
(§2) The ratio of the tumor volume in the treated group to that in a control group to which physiological saline was administered was calculated as a proliferation rate.

The subject of test [5] is large intestinal cancer cell strains. The test can be described thus: Cell proliferation inhibitory tests, panel as a whole (selectivity in words). It is filed as cell-based, human. The following applies: large intestinal cancer cells / tumor cells. On the procedure:
A cellular suspension (50 μl, 2,000 cells) of the human colon carcinoma cells WiDr or human normal fetal pulmonary fibroblasts HEL was inoculated in a 96-well microplate, and incubated at 37° C. in a 5% carbonic acid gas incubator. The next day, a 2-fold serially diluted solution (50 μl) of each compound was added and incubated for 3 days. The culture broth containing the compound was removed, the cells were washed, MTT pigment solution was added, and the surviving cell number was determined (Tada et al., J. Immunol. Methods, 93, 157-165 (1986)). The cell amount in a control group not treated with the compound solution was used as a standard (100%). The ratio of the cell amount in each treated group to that in the control group was calculated, and the IC50 (i.e., a compound concentration required for decreasing the surviving cell amount to 50% of that in the control group) was calculated.
(§3) to that in the control group was calculated, and the IC50 (i.e., a compound concentration required for decreasing the surviving cell amount to 50% of that in the control group) was calculated.

The next test has as its system Breast carcinoma SK-BR-3. The test can be described thus: Cell proliferation inhibitory test (Table 2). In kind it is cell-based. The following applies: Homo sapiens; Breast carcinoma SK-BR-3 (Table 2); read-out: IC50, cell strain SK-BR-3. The protocol:
as §3

A further test has as its system Breast carcinoma Hs578T. The test can be described thus: Cell proliferation inhibitory test (Table 2). It is filed as cell-based. The following applies: Homo sapiens, Hs-578T; Breast carcinoma Hs578T (Table 2); read-out: IC50, cell strain Hs578T. On the procedure: as §3
The test system of test [6] is Breast carcinoma MDA-MB-231. The test can be described thus: Cell proliferation inhibitory test (Table 2). It is filed as cell-based. The note with it: Homo sapiens; Breast carcinoma MDA-MB-231 (Table 2); read-out: IC50, cell strain MDA-MB-231. On the procedure:
as §3

Another test relates to Colon carcinoma SW620. The test can be described thus: Cell proliferation inhibitory test (Table 2). In kind it is cell-based. The following applies: Homo sapiens, SW-620; Colon carcinoma SW620 (Table 2); read-out: IC50, cell strain SW620. The protocol: as §3
A further test deals with Lung carcinoma A549. The test can be described thus: Cell proliferation inhibitory test (Table 2). It is filed as cell-based. The following applies: Homo sapiens; Lung carcinoma A549 (Table 2); read-out: IC50, cell strain A549. On the procedure:
as §3

The next test deals with Breast carcinoma T-47D. The test can be described thus: Cell proliferation inhibitory test (Table 2). In kind it is cell-based. The note with it: Homo sapiens, T47D; Breast carcinoma T-47D (Table 2); read-out: IC50, cell strain T-47D. The protocol: as §3
The subject of a further test is Colon carcinoma T84. The test can be described thus: Cell proliferation inhibitory test (Table 2). It is filed as cell-based. The following applies: Colon carcinoma T84 (Table 2); read-out: IC50, cell strain T84. On the procedure: as §3
A further test deals with Colon carcinoma SW948. The test can be described thus: Cell proliferation inhibitory test (Table 2). In kind it is cell-based. The following applies: Homo sapiens; Colon carcinoma SW948 (Table 2); read-out: IC50, cell strain SW948. The protocol:
as §3

Another test deals with Colon carcinoma WiDr. The test can be described thus: Cell proliferation inhibitory test (Table 2). It is filed as cell-based. The following applies: Homo sapiens; Colon carcinoma WiDr (Table 2); read-out: IC50, cell strain WiDr. On the procedure: as §3
The subject of test [7] is Breast carcinoma MDA-MB-453. The test can be described thus: Cell proliferation inhibitory test (Table 2). The following applies: Homo sapiens; Breast carcinoma MDA-MB-453 (Table 2); read-out: IC50, cell strain MDA-MB-453. In kind it is cell-based. On the procedure:
as §3

A further test has as its system Colon carcinoma SW48. The test can be described thus: Cell proliferation inhibitory test (Table 2). It is filed as cell-based. The note with it: Homo sapiens; Colon carcinoma SW48 (Table 2); read-out: IC50, cell strain SW48. The protocol: as §3
The next test concerns Colon carcinoma SW403. The test can be described thus: Cell proliferation inhibitory test (Table 2). It is filed as cell-based. The note with it: Homo sapiens, SW-403; Colon carcinoma SW403 (Table 2); read-out: IC50, cell strain SW403. On the procedure: as §3
The test system of a further test is Throat cancer KB. The test can be described thus: Cell proliferation inhibitory test (Table 2). The following applies: Throat cancer KB (Table 2); read-out: IC50, cell strain KB. It is filed as cell-based. The protocol:
as §3

A further test deals with Colon carcinoma LS180. The test can be described thus: Cell proliferation inhibitory test (Table 2). In kind it is cell-based. The note with it: Homo sapiens; Colon carcinoma LS180 (Table 2); read-out: IC50, cell strain LS180. The protocol:
as §3

In the next test the test system is Colon carcinoma LoVo. The test can be described thus: Cell proliferation inhibitory test (Table 2). It is filed as cell-based. The note with it: Homo sapiens; Colon carcinoma LoVo (Table 2); read-out: IC50, cell strain LoVo. The protocol: as §3
The test system of test [8] is human colon carcinoma cells WiDr transplanted to nude mice. The test can be described thus: Activity of a compound having a protective group at the 2-amino group, WiDr transplanted to nude mice (Test Example 4). In kind it is in vivo, human cells in Balb/C female nude mice. The note with it: oral. On the procedure: Activity of a compound having a protective group at the 2-amino group
The human colon carcinoma cells WiDr (5,000,000 cells) were subcutaneously transplanted to the thoracic parts of Balb/C female nude mice (7 weeks old). On the 5th day after the transplantation, the tumor cell size was measured. Five mice (per group) with almost the same tumor size were used for this experiment. A solution of 2-benzyloxycarbonylamino-1-methylimidazole hydrochloride (80 mg/kg body weight) of the present invention in physiological saline was orally administered 3 times a day for 3 days. The day following the end of the administration, the tumor cell size was measured. The tumor volume was calculated from the following equation:
as §1, §2

Where [9] appears, read: 3 days incubation, MTT (Table 1).
The mark [10] stands for this setting: HEL, 3 days incubation, MTT (Table 1).

Molecules are shown by their SMILES. Values after ≈ are worked out from the molar mass of the structure shown. Structures can show the parent of a compound that is named as a salt. Where two headings read alike, the source gives them in different places.

On to `Cn1ccnc1NC(=O)CC[C@H](N)C(=O)O` [Example 9, (2S)-2-amino-4-[(1-methylimidazol-2-yl)carbamoyl]butyric acid], for which the IC50 (commonly the concentration needed to halve the response being measured) in test [1] (setting [9]) was 5 µg/mL (≈ 22.1 µM); in test [2] (setting [10]), greater than 80 µg/mL.
Turning to `CN1CCN=C1N` [2-Amino-1-methylimidazoline hydrochloride], the IC50 was 1.4 µg/mL in test [1] (setting [9]), greater than 80 µg/mL in test [2] (setting [10]) and 100 mM in test [3].
Take `Nc1ncc[nH]1.O=S(=O)(O)O` [2-Aminoimidazole sulfate]: the IC50 in [1] was 12 µg/mL; in test [2] it was greater than 80 µg/mL.
In the case of `COC(=O)[C@@H](N)CCC(=O)Nc1nccn1C` [Example 8, methyl (2S)-2-amino-4-[(1-methylimiazol-2-yl)carbamoyl]butyrate dihydrochloride], the IC50 in test [1] (setting [9]) is 5 µg/mL; in test [2] (setting [10]) it was greater than 80 µg/mL.
The matching figures for `C=CCn1ccnc1N.Cl` [Example 1, 2-amino-1-(2-propenyl)imidazole hydrochloride]: 4.2 µg/mL and greater than 80 µg/mL.
On to `COc1ccc(C=Nc2nccn2C)cc1.Cl` [Reference Example 9, N-(1-methylimidazol-2-yl)-4-methoxybenzylideneamine hydrochloride], for which the IC50 in test [1] (setting [9]) was 2.2 µg/mL; in test [2] (setting [10]), greater than 80 µg/mL.
For `Cl.Cn1ccnc1N` [2-Amino-1-methylimidazole hydrochloride], the half-maximal inhibitory concentration (IC50) in test [1] (setting [9]) is 1.1 µg/mL; in [2] (setting [10]), greater than 80 µg/mL; in test [3], 30 mM; with Breast carcinoma SK-BR-3, greater than 80 µg/mL; in the test on Breast carcinoma Hs578T, 7 µg/mL; in test [6], greater than 80 µg/mL. In addition, the half-inhibitory concentration (IC50) in the test on Colon carcinoma SW620 was found to be 11 µg/mL; in the test on Lung carcinoma A549, 20 µg/mL; with Breast carcinoma T-47D, 13 µg/mL; in the test on Colon carcinoma T84, 2.8 µg/mL; in the test with Colon carcinoma SW948, 3.9 µg/mL; in the test with Colon carcinoma WiDr, 1.1 µg/mL. Also, the IC50 in [7] is greater than 80 µg/mL; in the test on Colon carcinoma SW48, 8.6 µg/mL; in the test with Colon carcinoma SW403, 5.2 µg/mL; with Throat cancer KB it was greater than 80 µg/mL; in the test on Colon carcinoma LS180 it was 6.3 µg/mL; in the test with Colon carcinoma LoVo it was 7.6 µg/mL. For the same compound, the “Proliferation rate (tumor volume, treated/control)” value in [4] (50 mg/kg) was determined as 76%; in test [4] (100 mg/kg), 64%; in test [4] (200 mg/kg), 49%. The “Inhibition of proliferation of transplanted WiDr (in words)” value in [4] (nude mice) is “inhibited the proliferation of the human colon carcinoma cell strain WiDr transplanted to the nude mice in a concentration-dependent manner”. Further, the “Selective inhibition of proliferation (in words)” value in test [5] was “selectively inhibits the proliferation of the large intestinal cancer cell strains”.
With `CCn1ccnc1N.Cl` [2-Amino-1-ethylimidazole hydrochloride], the 50% inhibitory concentration (IC50) in test [1] (setting [9]) is 4.4 µg/mL; in test [2] (setting [10]), greater than 80 µg/mL; in test [3], 50 mM.
Take `COC(=O)[C@@H](N)Cn1ccnc1N` [Example 5, 3-(2-aminoimidazol-1-yl)-L-alanine methyl ester dihydrochloride]: the IC50 in test [3] is 40 mM.
On to `Cn1ccnc1N=Cc1ccccc1` [Reference Example 7, N-(1-methylimidazol-2-yl)benzylideneamine], for which the half-inhibitory concentration (IC50) is 1.4 µg/mL (≈ 7.56 µM) in [1] (setting [9]) and greater than 80 µg/mL in test [2] (setting [10]).
Turning to `COC(=O)[C@@H](N)CC(=O)Nc1nccn1C.Cl.Cl` [Example 13, methyl (2S)-2-amino-3-[(1-methylimidazol-2-yl)carbamoyl]propionate dihydrochloride], the IC50 in test [1] (setting [9]) is 11 µg/mL; in [2] (setting [10]) it was greater than 80 µg/mL.
Consider `Cn1ccnc1NC(=O)OCc1ccccc1` [Example 4, 2-benzyloxycarbonylamino-1-methylimidazole hydrochloride], for which the “Proliferation rate (tumor volume, treated/control)” value in [8] (80 mg/kg, 3 times a day for 3 days, control = 100) is listed as 70%. Moreover, the “Inhibition of proliferation of transplanted WiDr (in words)” value in test [8] (nude mice) is “inhibited the proliferation of the human large intestinal cancer cell strain WiDr transplanted to nude mice”.

The values are drawn from patent publication US5552427A, “Glutaminase inhibitory compounds, compositions, and methods of use” (Takeda Chemical Industries, Ltd., priority 1993, dated 1996).
